Values of other authors in patent US20080306069A1, “Pyrazole Derivatives for the Inhibition of CDK'S and GSK'S” (ASTEX THERAPEUTICS LIMITED, priority 2005, published 2008).

System: malignant cells from B-cell chronic lymphocytic leukemia (B-CLL)
Conditions: in vitro

Row | Structure (SMILES) | apoptosis of malignant B-CLL cells
1 | CC[C@H](CO)Nc1nc(NCc2ccccc2)c2ncn(C(C)C)c2n1 [CYC 202] | induce in vitro apoptosis
2 | CN1CC[C@H](c2c(O)cc(O)c3c(=O)cc(-c4ccccc4Cl)oc23)[C@H](O)C1 [Flavopiridol, flavopiridol] | induce in vitro apoptosis
